86 compounds from a melting point compilation (Tetko et al.; mined from patent text by program, amines drawn as free bases though some values may be those of a salt) can be followed below.

As a reminder, the melting point is the temperature, or range, at which the solid turns liquid.

The structures appear in SMILES notation.

Compound `CCOC(=O)C1(c2ccccc2)CCN(C2CCC(C#N)(c3ccc(F)cc3C)CC2)CC1` (stereo unspecified) yielded a melting point of 135 °C.

As to `COC1=C(OC)C(=O)NC1=O`, the melting point lay in the range of 126 to 127 °C.

In turn, `CCN(CC)CCCNc1nnc(COC)c2c1cc1n2CCCC1` returned a melting point of 145 to 147 °C.

The compound `ICCCC1(c2ccccc2)OCCO1` had a melting point of 71 to 73 °C.

Take `COc1ccc2c(c1)C(=O)C(C(=O)O)C(c1ccccc1)=N2` (stereo unspecified): the melting point is greater than 300 °C.

On to `O=C(Cc1c(Cl)c(F)nc(F)c1Cl)OCc1ccccc1`, for which the melting point is 98 to 101 °C.

Turning to `CCCNc1nc(OC)ccc1[N+](=O)[O-]`, the melting point was 69 to 70 °C.

Compound `CN1CC(CCCl)Oc2ncc(Cl)cc2C1=S` (stereo unspecified) had a melting point of 125 to 127 °C.

On to `Cc1ccc(C(=O)NCCN(C)C)cc1-n1c(C)cc(OCc2ccccc2CNC(=O)Nc2cc(C(C)(C)C)nn2-c2ccc(Cl)c(O)c2)c(Cl)c1=O`, for which the melting point was 185 to 186 °C.

Regarding `CCCOc1ccccc1-c1nc(O)cc(C(N)=O)n1`, the melting point worked out at 234 °C.

`COC1CCC2C3CCC4=CC(=O)C(C)CC4(C)C3CCC12C` (stereo unspecified) registered a melting point of 130 to 145 °C.

For the compound `Cc1nn(C)cc1C(=O)Nc1cc(Oc2ccc3nc(NC(=O)C4CC4)cn3n2)ccc1F`, the melting point stood at 205 °C.

`O=[N+]([O-])c1ccc(OCCn2ccnc2)cc1` showed a melting point of 55 to 57 °C.

On to `CC(=O)Nc1cc2c(cc1[N+](=O)[O-])OC(C)(C)[C@@H](O)[C@@H]2NC(C)=O` (relative stereo), for which the melting point lay within 244 to 246 °C.

Regarding `CCCCOC(=O)C(NC(=O)OCc1ccccc1)c1ccc(O)cc1` (stereo unspecified), the melting point lay within 143 to 144 °C.

`CC(=O)Nc1ccc(N=C=S)cc1O` had a melting point of 68 to 70 °C.

The compound `CC1(C)Oc2ccc(C#N)cc2[C@@H](N2CCCC2=NC#N)[C@@H]1O` (relative stereo) had a melting point of 246 to 247 °C.

Regarding `C=C1CCC2C3CCc4cc(O)ccc4C3CCC12C` (stereo unspecified), the melting point lay within 134 to 136 °C.

In turn, `CCOC(=O)C(=O)CC(=O)c1cn(Cc2ccc3ccccc3n2)c2ccccc2c1=O` showed a melting point of 237 to 238 °C.

`O=S1(=O)N=C(n2ccnc2)Nc2cc(F)c(F)cc21` gave a melting point of 264 to 266 °C.

With `NS(=O)(=O)c1sc(Cl)cc1C(=O)CBr`, the melting point was in the range of 147 to 148 °C.

Consider `O=c1[nH]cc(Cc2ccncc2)c2ccccc12`, for which the melting point lay in the range of 189 to 190 °C.

`NC(=NCC(F)(F)F)Nc1ccnc(CCCCc2c[nH]cn2)n1` yielded a melting point of 191 to 193 °C.

In the case of `CCC1=C(C)CN(C(=O)NC2COc3cc(OC)ccc3C2)C1=O` (stereo unspecified), the melting point lay within 118 to 119 °C.

`CCOc1c(C=C2CCn3c2nc2cc(NC(=O)C(=O)O)ccc2c3=O)cccc1OC` gave a melting point of 220 to 222 °C.

For `C#C[C@H](Cc1cccc(F)c1)n1nnc2cc3c(cc2c1=O)OCN(C1CC1)C3=O`, the melting point was in the range of 168 to 180 °C.

Take `CCc1c(C(=O)c2cc(C)cc(C)c2)n(CC2CC=CC2)c(=O)[nH]c1=O`: the melting point fell in the range of 209 to 210 °C.

As to `CCc1c(-c2ccc(OCc3ccccc3)cc2)c2c(CO)cc3c(OCc4ccccc4)ccc1n32`, the melting point was in the range of 133 to 134 °C.

As for `Cc1ccccc1-c1c(NC(=O)Nc2ccc(F)cc2F)c(=O)oc2ccc(Cl)cc12`, the melting point lay within 210 to 212 °C.

Consider `NC(=O)CN1C[C@@H](c2ccccc2)CC1=O`, for which the melting point is 108 °C.

In turn, `FC(F)(F)/C(=C(/c1ccccc1)c1ccc(OCCBr)cc1)c1ccccc1` showed a melting point of 135 to 138 °C.

Compound `O=Cc1cc(Cl)c(Cl)c(Cl)n1` returned a melting point of 84 to 88 °C.

As for `Cc1ccc2c(c1)C(C(=O)Nc1c(C)cccc1Cl)c1ccccc1CO2` (stereo unspecified), the melting point fell in the range of 160 to 161 °C.

In turn, `COc1cc2ncc(C#N)c(Nc3ccc4ncccc4c3)c2cc1OC` yielded a melting point of 241 to 243 °C.

Consider `CN(C)C(=O)ON=C1COCS1`, for which the melting point fell in the range of 87.5 to 88 °C.

`CCOC(=O)C(C)(C)C(=O)C(Oc1ccc(Cl)cc1)n1cncn1` (stereo unspecified) gave a melting point of 88 to 89 °C.

Turning to `CN(C)CCOc1ccc(-c2nnc(CSCCOc3ccccc3)o2)cc1`, the melting point was 62 to 64 °C.

The compound `CN1C[C@@H]2C[C@H]1CN2c1cc2c(cc1F)c(=O)c(C=O)cn2C1CC1` yielded a melting point of 274 to 275 °C.

In turn, `CC(=NOC(C)(C)C)c1cnc(NC(=O)[C@H](CC2CCCC2)c2ccc(S(C)(=O)=O)cc2)cn1` returned a melting point of 81 to 83 °C.

As to `CCCc1c(O)c(C(C)=O)cc(Cl)c1OCCCCCOc1c(C(C)=O)ccc(OCC(=O)O)c1CCC`, the melting point was in the range of 77 to 80 °C.

`CC1CC=C(Nc2ccc(Br)cc2)c2ncc(C(=O)O)c(=O)n21` (stereo unspecified) displayed a melting point of 202 to 204 °C.

`CCn1cc(C(=O)O)c(=O)c2cc(F)c(N3Cc4ccccc4C3)cc21`: the melting point is greater than 300 °C.

Turning to `CC(c1cc(Cl)cc(Cl)c1O)c1cc(F)cc(Cc2cc(Cl)cc(Br)c2O)c1O` (stereo unspecified), the melting point worked out at 171 °C.

Regarding `O=C(CCC(=O)N1CCC(c2ccc(Cl)cc2)CC1)c1ccc2c(c1)CCN(C(=O)c1ccccc1)CC2`, the melting point was in the range of 158 to 160 °C.

In turn, `CC(=O)OCC(=O)C1(O)C(C)CC2C3CC(C)C4=CC(=O)CCC4(C)C3=CCC21C` (stereo unspecified) showed a melting point of 197 to 199 °C.

Compound `CC(=O)N1CCSC1c1nsc2ccc(-n3c(=O)cc(C(F)(F)F)n(C)c3=O)cc12` (stereo unspecified) displayed a melting point of 135 to 140 °C.

The compound `CC(C)CC(NC(=O)OCc1ccccc1)C(=O)Nc1nncs1` (racemic) came in with a melting point of 118 to 120 °C.

Compound `O=C(O)c1cn(C2COC2)c2c(F)c(F)c(F)cc2c1=O` showed a melting point of 203 to 206 °C.

As to `CCOC(=O)C(C)(C)Oc1ccc(-c2ccc(CCNC(=O)c3cc(OC)cc(OC)c3)cc2)cc1`, the melting point worked out at 74 °C.

`O=C1Nc2ccccc2C12COc1cc3c(cc12)CCCO3` (stereo unspecified) came in with a melting point of 216 to 220 °C.

With `C=C(C)c1ccc(C(C)(C)OOC(C)(C)c2ccccc2)cc1`, the melting point turned out to be 40 °C.

Consider `CCCCc1nc2ccccc2n1Cc1ccc(-c2ccccc2C(=O)OC)cc1`, for which the melting point was in the range of 132 to 134 °C.

As for `OCc1ccc(N(c2ccccc2)c2ccccc2)cc1`, the melting point lay within 104 to 105 °C.

As for `COc1cc(OC)cc(N2CCN(C(=O)N(c3nc4ccccc4nc3OC)C(C)C)CC2)c1`, the melting point lay within 110 to 112 °C.

In turn, `CCCCc1nn(-c2ccccc2Cl)c(=O)n1Cc1ccc(-c2ccccc2S(N)(=O)=O)cc1` displayed a melting point of 140 to 142 °C.

`CN1CCN(C2=Nc3ccccc3C(O)(c3ccccc3)C2(C)C)CC1` (stereo unspecified) returned a melting point of 268 to 269 °C.

`CC(C)(C)c1cc(CN)c(O)c(I)n1` displayed a melting point of 162 to 165 °C.

`NC(=O)c1ccc(C(=C2CC3CCC(C2)N3CCc2ccccc2)c2ccccc2)cc1` yielded a melting point of 210 to 212 °C.

With `CN1CCC(c2c[nH]c3ccc(C(=O)c4ccc(C(F)(F)F)cc4)cc23)CC1`, the melting point is 160 to 162 °C.

In the case of `COCCNC(=O)c1ccc2c(c1)C=CC(C)(C)O2`, the melting point was 57 to 60 °C.

`CC(=O)NCCc1cnn2ccc3c(c12)CCO3`: the melting point is 174 to 175 °C.

Consider `CC(C)(C)[C@@H]1O[C@@H](O)[C@@H]2[C@H]1C2(C)C`, for which the melting point stood at 126 °C.

`CC(=O)SCCC1(C)C(=O)N2CCCC(C(=O)O)N2C1=O` (stereo unspecified) gave a melting point of 142 to 143 °C.

On to `COc1ccccc1N(CCN1CCC(C(=O)c2ccc(F)cc2)CC1)C(=O)c1ccc(CO)cc1`, for which the melting point is 87 to 91 °C.

Compound `COc1cccc(CCc2c(CCNC(=O)CCCCC(=O)O)ccc(OC)c2OC)c1` had a melting point of 119 to 121 °C.

`O=C(NC[C@H]1CN(c2ccc3c(c2)CCCc2cnoc2-3)C(=O)O1)c1ccccc1` yielded a melting point of 240 to 245 °C.

The compound `COc1ccc2c(c1)c(CC(=O)O)c(C)n2C(=O)c1c(Cl)cc(Cl)cc1Cl` showed a melting point of 193 to 196 °C.

The compound `CCCCCCCCCCCCCCCCc1c(O)c(CN(C)C(=O)Oc2cccc([N+](=O)[O-])c2)c(CCC)c(O)c1CN(C)C(=O)Oc1cccc([N+](=O)[O-])c1` came in with a melting point of 89 to 95 °C.

Take `Cc1ccc(CNc2ccc3c(CNC(=O)c4ccc(F)cc4)cccc3n2)o1`: the melting point was 173 °C.

The compound `CN1CCN(C(=O)c2ccc(-c3[nH]nc4c3C(=O)c3c(NC(=O)NC5CNCCO5)cccc3-4)s2)CC1` (stereo unspecified) displayed a melting point of 190 °C.

Regarding `COC(=O)C1OC(Oc2ccc(C=O)cc2[N+](=O)[O-])C(OC(C)=O)C(OC(C)=O)C1OC(C)=O` (stereo unspecified), the melting point lay within 180 to 182 °C.

Turning to `O=C(c1ccc(Oc2ccc(C(F)(F)F)cc2Cl)cc1)C(Cl)Cl`, the melting point lay in the range of 41 to 42 °C.

`Cc1oc(-c2ccccc2)nc1COc1cc(COc2ncccc2C#N)on1`: the melting point lay in the range of 139 to 140 °C.

Regarding `CCOC(=O)[C@H](Cc1ccc(N)cc1)NC(=O)c1ccccc1`, the melting point lay in the range of 120 to 122 °C.

`Clc1ccc(COC(CNc2ccc(Cl)cc2Cl)Cn2ccnc2)cc1` (stereo unspecified) came in with a melting point of 93 to 95 °C.

For `OCc1cc(Cl)c(Cl)cc1CO`, the melting point was 128 to 136 °C.

`CCOC1(c2nc3ccccc3s2)C=CC(=O)C=C1` registered a melting point of 59 °C.

On to `O=C(NC(=O)c1cccnc1Cl)Nc1cc(Cl)c(OC(F)(F)C(Cl)Cl)c(Cl)c1`, for which the melting point was 189 to 192 °C.

The compound `O=C(O)COc1ccc(CCCS(=O)(=O)c2ccc(Cl)cc2)cc1` had a melting point of 159 to 160 °C.

In turn, `CCN1C[C@H](CN2CCN(C(c3ccccc3)c3ccccc3)CC2)C[C@@H]2c3cccc4[nH]cc(c34)C[C@H]21` yielded a melting point of 203 to 205 °C.

In turn, `COc1cc2c3c(c1O)C1(C=CC(=O)C=C1)CC3N(C)CC2` (stereo unspecified) had a melting point of 225 °C.

Compound `COC1(c2ccc(C(C)(C)C)cc2)CC1C(=O)N[C@H](C)c1ccc(NS(C)(=O)=O)c(C)c1` (stereo partly specified) returned a melting point of 231 °C.

`COc1cccc(C(C#N)=NOS(C)(=O)=O)c1`: the melting point was in the range of 105 to 107 °C.

In turn, `COc1cccc2sc(C3(O)CCN(C(=O)OC(C)(C)C)C(C)C3)cc12` (stereo unspecified) displayed a melting point of 73 to 76 °C.

As to `Cc1oc(-c2ccccc2)nc1CCc1ccc(CCCCCC2OC(=O)NC2=O)cc1` (stereo unspecified), the melting point is 116 to 117 °C.

`CO[C@@H](CCc1nc(-c2ccccc2)oc1C)c1ccc(C=C2SC(=O)NC2=O)cc1` displayed a melting point of 205 to 206 °C.
